Experimental data: ChEMBL document CHEMBL4346703, “Structure Overhaul Affords a Potent Purine PI3Kδ Inhibitor with Improved Tolerability” (J Med Chem, 2019)

What was measured:
[1] = target: T1, Phosphatidylinositol 4,5-bisphosphate 3-kinase catalytic subunit delta isoform (Homo sapiens, UniProt O00329); experiment: Inhibition of PI3Kdelta in human Ramos cells assessed as reduction in anti-IgM-antibody-induced phosphorylation of AKT at Ser473 residue preincubated for 20 mins followed by anti-IgM antibody stimulation and measured after 30 mins by alphascreen assay; assay type: cell-based
T1 sequence (O00329 whole entry): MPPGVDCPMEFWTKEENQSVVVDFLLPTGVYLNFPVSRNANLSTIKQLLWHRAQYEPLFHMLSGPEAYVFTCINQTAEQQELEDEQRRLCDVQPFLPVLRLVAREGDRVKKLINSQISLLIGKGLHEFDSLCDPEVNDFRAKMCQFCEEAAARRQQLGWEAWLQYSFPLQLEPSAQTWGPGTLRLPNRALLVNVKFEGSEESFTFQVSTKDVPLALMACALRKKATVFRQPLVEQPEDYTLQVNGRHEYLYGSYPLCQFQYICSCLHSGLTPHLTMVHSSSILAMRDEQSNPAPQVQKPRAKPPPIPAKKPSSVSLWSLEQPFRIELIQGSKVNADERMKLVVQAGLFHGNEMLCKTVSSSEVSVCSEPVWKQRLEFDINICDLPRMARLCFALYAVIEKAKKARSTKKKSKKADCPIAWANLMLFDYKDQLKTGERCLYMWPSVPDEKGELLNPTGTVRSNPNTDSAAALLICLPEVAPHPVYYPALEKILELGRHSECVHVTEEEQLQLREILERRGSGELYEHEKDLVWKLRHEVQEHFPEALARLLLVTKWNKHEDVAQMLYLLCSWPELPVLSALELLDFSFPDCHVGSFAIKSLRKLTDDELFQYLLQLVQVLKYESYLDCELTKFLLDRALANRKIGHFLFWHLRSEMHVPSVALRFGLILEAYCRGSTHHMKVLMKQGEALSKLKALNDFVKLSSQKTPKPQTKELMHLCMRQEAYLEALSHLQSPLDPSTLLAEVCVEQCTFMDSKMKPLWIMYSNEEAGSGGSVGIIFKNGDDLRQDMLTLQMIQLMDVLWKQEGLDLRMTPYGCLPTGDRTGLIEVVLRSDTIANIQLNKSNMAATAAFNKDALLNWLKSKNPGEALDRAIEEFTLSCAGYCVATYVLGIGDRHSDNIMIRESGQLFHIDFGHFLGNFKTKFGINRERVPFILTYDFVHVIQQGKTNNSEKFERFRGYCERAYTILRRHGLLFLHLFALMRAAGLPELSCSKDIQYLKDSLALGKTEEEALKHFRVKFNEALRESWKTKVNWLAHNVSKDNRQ

[2] = Inhibition of adenosine transporter in human HeLa cells assessed as reduction in [3H]adenosine uptake preincubated for 30 mins followed by [3H]adenosine addition and measured after 60 mins; assay type: ADME, cell-based
[3] = target: PI3-kinase p110-alpha/p85-alpha (Homo sapiens, UniProt P42336); experiment: Inhibition of N-terminal His6-tagged recombinant full length human p110alpha/untagged recombinant full length human p85alpha expressed in baculovirus infected Sf21 insect cells using PIP2 as substrate preincubated for 15 mins followed by substrate addition and measured after 1 hr by HTRF assay
PI3-kinase p110-alpha/p85-alpha, sequence (P27986 whole entry): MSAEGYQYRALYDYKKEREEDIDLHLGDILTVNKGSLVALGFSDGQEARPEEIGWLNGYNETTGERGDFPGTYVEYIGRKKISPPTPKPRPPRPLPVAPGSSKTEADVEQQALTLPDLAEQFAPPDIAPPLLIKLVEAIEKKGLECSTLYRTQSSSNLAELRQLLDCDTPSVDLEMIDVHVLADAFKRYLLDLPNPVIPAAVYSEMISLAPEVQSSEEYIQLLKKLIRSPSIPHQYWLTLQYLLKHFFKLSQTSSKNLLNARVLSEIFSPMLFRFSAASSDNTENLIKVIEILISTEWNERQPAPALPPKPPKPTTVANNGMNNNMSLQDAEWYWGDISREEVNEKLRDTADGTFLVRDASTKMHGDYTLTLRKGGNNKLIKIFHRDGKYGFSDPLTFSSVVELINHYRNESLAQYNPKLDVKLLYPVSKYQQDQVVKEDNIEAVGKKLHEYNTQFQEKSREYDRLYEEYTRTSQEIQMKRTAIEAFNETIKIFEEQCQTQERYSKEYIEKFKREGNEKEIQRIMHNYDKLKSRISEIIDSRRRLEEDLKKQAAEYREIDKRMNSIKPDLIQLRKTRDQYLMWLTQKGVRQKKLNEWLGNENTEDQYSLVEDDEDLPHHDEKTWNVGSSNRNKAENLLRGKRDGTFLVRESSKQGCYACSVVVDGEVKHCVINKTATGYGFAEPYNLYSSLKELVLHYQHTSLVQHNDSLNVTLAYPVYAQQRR
PI3-kinase p110-alpha/p85-alpha, sequence (P42336 whole entry): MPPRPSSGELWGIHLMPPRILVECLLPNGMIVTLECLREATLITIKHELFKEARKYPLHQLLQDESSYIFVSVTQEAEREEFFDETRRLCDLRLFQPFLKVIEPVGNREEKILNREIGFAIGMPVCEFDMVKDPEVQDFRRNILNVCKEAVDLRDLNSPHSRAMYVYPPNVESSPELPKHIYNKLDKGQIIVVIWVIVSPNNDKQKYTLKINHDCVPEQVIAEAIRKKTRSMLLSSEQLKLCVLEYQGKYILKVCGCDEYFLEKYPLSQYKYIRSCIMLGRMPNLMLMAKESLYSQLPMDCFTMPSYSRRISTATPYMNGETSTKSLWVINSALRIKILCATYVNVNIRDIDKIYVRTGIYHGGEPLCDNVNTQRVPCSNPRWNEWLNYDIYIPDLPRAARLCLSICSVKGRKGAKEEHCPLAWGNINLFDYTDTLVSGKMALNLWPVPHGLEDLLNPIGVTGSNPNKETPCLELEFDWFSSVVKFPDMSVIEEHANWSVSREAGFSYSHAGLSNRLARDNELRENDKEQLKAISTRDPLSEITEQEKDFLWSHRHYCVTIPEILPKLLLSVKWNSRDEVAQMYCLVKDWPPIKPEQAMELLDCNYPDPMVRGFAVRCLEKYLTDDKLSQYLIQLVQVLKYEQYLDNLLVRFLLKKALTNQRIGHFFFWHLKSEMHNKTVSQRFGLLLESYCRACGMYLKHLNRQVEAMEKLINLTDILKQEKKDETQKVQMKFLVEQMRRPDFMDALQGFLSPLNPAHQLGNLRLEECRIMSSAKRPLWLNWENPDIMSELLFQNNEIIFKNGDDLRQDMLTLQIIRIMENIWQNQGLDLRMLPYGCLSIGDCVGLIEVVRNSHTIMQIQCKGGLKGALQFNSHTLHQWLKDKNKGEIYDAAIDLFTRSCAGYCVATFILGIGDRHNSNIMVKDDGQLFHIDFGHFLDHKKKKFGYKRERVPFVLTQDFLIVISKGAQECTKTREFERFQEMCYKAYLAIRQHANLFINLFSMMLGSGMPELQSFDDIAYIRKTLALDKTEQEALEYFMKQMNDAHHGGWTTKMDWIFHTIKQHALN

[4] = Half-life in Wistar Han rat; assay type: ADME; settings: in vivo
[5] = Volume of distribution in Wistar Han rat; assay type: ADME; settings: in vivo
[6] = Unbound volume of distribution in Wistar Han rat; assay type: ADME; settings: in vivo
[7] = Protein binding in human plasma; assay type: ADME, cell-free; settings: read-out: PPB (converted)
[8] = target: T1, Phosphatidylinositol 4,5-bisphosphate 3-kinase catalytic subunit delta isoform; experiment: Inhibition of PI3Kdelta in human whole blood assessed as reduction in antihuman IgE antibody-stimulated CD63 expression preincubated for 30 mins followed by antihuman IgE antibody stimulation and measured after 20 mins by FACS analysis; assay type: tissue-based
[9] = target: T1, Phosphatidylinositol 4,5-bisphosphate 3-kinase catalytic subunit delta isoform; experiment: Inhibition of PI3Kdelta in human whole blood assessed as reduction in anti-CD79b antibody-induced CD69 expression preincubated for 60 mins followed by anti-CD79b antibody stimulation and measured after 3 hrs by FACS analysis; assay type: tissue-based
[10] = Intrinsic clearance in Wistar Han rat at 0.05 mg/kg; assay type: ADME, organism-based; settings: in vivo
[11] = Protein binding in Wistar Han rat plasma; assay type: ADME, cell-free; settings: read-out: PPB (converted)
[12] = Lipophilicity, log D of the compound; assay type: physicochemical; settings: octanol/water
[13] = Plasma clearance in Wistar Han rat at 0.05 mg/kg; assay type: ADME, organism-based
[14] = target: PI3-kinase p110-delta/p85-alpha (Homo sapiens, UniProt O00329); experiment: Inhibition of N-terminal His6-tagged recombinant full length human p110delta/untagged recombinant full length human p85alpha expressed in baculovirus infected Sf21 insect cells using PIP2 as substrate preincubated for 15 mins followed by substrate addition and measured after 1 hr by HTRF assay
PI3-kinase p110-delta/p85-alpha, sequence (P27986 whole entry, one chain of several): as the sequence (P27986 whole entry) above

[15] = target: Dual 3',5'-cyclic-AMP and -GMP phosphodiesterase 11A (Homo sapiens, UniProt Q9HCR9); experiment: Inhibition of PDE11 (unknown origin)
[16] = target: High affinity cGMP-specific 3',5'-cyclic phosphodiesterase 9A (Homo sapiens, UniProt O76083); experiment: Inhibition of PDE9 (unknown origin)
Phosphodiesterase 4 = Phosphodiesterase 4 (Homo sapiens, UniProt P27815+Q08499+Q07343+Q08493); experiment: Inhibition of PDE4 (unknown origin); assay type: protein assay
Phosphodiesterase 6 = experiment: Inhibition of PDE6 (unknown origin); assay type: protein assay, Homo sapiens
[17] = target: cAMP and cAMP-inhibited cGMP 3',5'-cyclic phosphodiesterase 10A (Homo sapiens, UniProt Q9Y233); experiment: Inhibition of PDE10 (unknown origin)
cAMP and cAMP-inhibited cGMP 3',5'-cyclic phosphodiesterase 10A, sequence (Q9Y233 whole entry): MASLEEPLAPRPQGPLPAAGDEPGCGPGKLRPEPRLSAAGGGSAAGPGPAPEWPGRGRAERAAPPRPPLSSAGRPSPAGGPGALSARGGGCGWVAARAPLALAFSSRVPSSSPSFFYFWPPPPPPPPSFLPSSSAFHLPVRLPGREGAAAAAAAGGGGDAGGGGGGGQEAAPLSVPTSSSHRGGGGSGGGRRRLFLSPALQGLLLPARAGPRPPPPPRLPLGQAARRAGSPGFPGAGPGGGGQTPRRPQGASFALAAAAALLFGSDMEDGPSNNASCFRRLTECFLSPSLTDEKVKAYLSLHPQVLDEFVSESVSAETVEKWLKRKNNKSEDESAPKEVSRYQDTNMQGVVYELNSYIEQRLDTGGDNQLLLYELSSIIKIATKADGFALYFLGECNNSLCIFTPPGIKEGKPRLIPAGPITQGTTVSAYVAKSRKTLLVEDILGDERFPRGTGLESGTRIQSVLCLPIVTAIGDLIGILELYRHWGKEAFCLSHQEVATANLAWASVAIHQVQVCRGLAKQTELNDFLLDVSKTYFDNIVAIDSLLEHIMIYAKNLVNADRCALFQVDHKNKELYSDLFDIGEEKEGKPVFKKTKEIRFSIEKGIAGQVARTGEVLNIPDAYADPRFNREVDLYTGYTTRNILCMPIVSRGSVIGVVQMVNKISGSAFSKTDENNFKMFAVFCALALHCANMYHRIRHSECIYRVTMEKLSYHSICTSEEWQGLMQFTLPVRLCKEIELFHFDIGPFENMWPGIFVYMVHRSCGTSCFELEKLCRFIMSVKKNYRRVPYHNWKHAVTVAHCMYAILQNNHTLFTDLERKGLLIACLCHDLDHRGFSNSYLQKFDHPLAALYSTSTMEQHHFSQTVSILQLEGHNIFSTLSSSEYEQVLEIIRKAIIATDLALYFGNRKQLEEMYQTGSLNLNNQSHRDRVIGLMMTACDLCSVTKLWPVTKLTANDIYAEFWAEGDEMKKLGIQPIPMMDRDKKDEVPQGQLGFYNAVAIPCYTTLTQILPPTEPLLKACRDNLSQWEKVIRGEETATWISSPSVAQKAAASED

[18] = Plasma clearance in Wistar Han rat at 0.5 mg/kg, iv or 1 mg/kg, po; assay type: ADME, organism-based
[19] = target: cGMP-dependent 3',5'-cyclic phosphodiesterase (Homo sapiens, UniProt O00408); experiment: Inhibition of PDE2 (unknown origin)
cGMP-dependent 3',5'-cyclic phosphodiesterase, sequence (O00408 whole entry): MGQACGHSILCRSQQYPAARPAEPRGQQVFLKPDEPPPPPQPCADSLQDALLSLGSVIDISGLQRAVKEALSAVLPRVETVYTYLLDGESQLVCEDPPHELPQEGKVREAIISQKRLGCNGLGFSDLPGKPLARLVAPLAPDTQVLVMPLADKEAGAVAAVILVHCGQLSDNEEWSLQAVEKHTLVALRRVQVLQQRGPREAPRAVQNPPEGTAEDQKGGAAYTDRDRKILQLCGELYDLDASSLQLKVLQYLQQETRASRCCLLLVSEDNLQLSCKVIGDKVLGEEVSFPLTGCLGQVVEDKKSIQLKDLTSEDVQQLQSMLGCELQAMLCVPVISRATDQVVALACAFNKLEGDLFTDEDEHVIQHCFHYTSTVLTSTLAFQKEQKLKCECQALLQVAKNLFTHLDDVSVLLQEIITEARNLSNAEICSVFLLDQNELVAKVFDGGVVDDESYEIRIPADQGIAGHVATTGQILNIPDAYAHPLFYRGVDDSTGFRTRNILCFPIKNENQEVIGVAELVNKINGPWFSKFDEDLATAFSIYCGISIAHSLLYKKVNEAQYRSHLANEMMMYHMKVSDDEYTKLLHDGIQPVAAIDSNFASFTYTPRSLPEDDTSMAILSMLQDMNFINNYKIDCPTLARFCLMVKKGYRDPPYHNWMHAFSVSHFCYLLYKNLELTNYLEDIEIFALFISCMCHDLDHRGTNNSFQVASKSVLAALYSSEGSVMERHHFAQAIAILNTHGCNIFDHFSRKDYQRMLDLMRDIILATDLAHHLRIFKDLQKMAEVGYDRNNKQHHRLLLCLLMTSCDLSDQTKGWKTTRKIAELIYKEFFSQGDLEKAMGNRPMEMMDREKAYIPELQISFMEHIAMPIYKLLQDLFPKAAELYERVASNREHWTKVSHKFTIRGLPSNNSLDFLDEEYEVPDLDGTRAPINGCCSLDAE

[20] = target: High affinity cAMP-specific and IBMX-insensitive 3',5'-cyclic phosphodiesterase 8A (Homo sapiens, UniProt O60658); experiment: Inhibition of PDE8 (unknown origin)
High affinity cAMP-specific and IBMX-insensitive 3',5'-cyclic phosphodiesterase 8A, sequence (O60658 whole entry): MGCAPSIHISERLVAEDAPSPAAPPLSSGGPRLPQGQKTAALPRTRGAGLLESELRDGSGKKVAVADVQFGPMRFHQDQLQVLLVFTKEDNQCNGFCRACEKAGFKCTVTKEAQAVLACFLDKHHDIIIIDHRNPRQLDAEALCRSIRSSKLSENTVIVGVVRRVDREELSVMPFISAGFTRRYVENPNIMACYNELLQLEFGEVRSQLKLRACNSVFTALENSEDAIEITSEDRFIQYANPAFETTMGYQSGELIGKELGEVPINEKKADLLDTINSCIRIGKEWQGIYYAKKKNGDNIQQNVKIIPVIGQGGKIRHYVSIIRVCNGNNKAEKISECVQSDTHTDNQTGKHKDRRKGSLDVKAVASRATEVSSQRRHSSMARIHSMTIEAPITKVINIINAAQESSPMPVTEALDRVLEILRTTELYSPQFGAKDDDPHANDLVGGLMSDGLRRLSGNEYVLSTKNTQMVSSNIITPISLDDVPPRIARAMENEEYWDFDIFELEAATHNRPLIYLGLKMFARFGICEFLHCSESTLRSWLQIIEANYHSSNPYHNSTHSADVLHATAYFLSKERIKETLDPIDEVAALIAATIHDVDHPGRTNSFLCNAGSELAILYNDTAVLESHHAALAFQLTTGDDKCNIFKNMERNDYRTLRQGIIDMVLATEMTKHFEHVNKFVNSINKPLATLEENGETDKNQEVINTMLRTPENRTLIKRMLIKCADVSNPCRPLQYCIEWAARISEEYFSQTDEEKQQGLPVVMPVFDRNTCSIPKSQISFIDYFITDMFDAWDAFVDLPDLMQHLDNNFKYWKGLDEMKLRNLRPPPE

Phosphodiesterase 1 = Phosphodiesterase 1 (Homo sapiens, UniProt P54750+Q01064+Q14123); experiment: Inhibition of PDE1 (unknown origin); assay type: protein assay
Phosphodiesterase 3 = Phosphodiesterase 3 (Homo sapiens, UniProt Q14432+Q13370); experiment: Inhibition of PDE3 (unknown origin); assay type: protein assay
[21] = target: cGMP-specific 3',5'-cyclic phosphodiesterase (Homo sapiens, UniProt O76074); experiment: Inhibition of PDE5 (unknown origin)
Phosphodiesterase 7 = Phosphodiesterase 7 (Homo sapiens, UniProt Q13946+Q9NP56); experiment: Inhibition of PDE7 (unknown origin); assay type: protein assay

Structure (SMILES)	IC50 [1] [nM]	IC50 [2] [nM]	IC50 [3] [nM]	IC50 [14] [nM]	further results
CCC(=O)N1CCC[C@H](Nc2ncnc3c2nc(-c2cnn(CC)c2C)n3C)C1	309	3910	338	–	–
CCn1ncc(-c2nc3c(N[C@H]4CCN(C(=O)C5CC5)C4)ncnc3n2C)c1C	13	1590	35	0.9	half-life [4]: 18 min; Vd [5]: 1.1 L/kg; Vdu [6]: 4 L/kg; fraction unbound [7]: 0.45; IC50 [8]: 330 nM; IC50 [9]: 35 nM; CL [10]: 410 mL/min/kg; fraction unbound [11]: 0.28; logD [12]: 1; clearance [13]: 49 mL/min/kg
CC[C@H](Nc1ncnc2c1nc(-c1cnn(CC)c1C)n2C)C(=O)N1CCOCC1	–	–	274	–	–
CCn1ncc(-c2nc3c(S[C@H]4CCN(C(=O)C5CCOCC5)C4)ncnc3n2C)c1C	572	1400	597	15	–
CCn1ncc(-c2nc3c(Oc4csc(C(=O)N5CCOCC5)c4)ncnc3n2C)c1C	970	4500	2950	68	–
CCn1ncc(-c2nc3c(NC4CCN(CC(C)C)C4=O)ncnc3n2C)c1C (racemic)	8330	7150	1780	1350	–
CCn1ncc(-c2nc3c(NC4CC(=O)N(CC(C)C)C4)ncnc3n2C)c1C (stereo unspecified)	45	2250	121	4.3	–
CCC(=O)N1CCC(Nc2ncnc3c2nc(-c2cnn(CC)c2C)n3C)CC1	–	> 10000	1190	800	–
CCn1ncc(-c2nc3c(N[C@H]4CCN(C(=O)C5CCOCC5)C4)ncnc3n2C)c1C	16	9190	35	0.5	IC50 [15]: > 20000 nM; IC50 [16]: > 20000 nM; IC50 (Phosphodiesterase 4): > 20000 nM; half-life [4]: 12 min; Vd [5]: 1.7 L/kg; Vdu [6]: 3 L/kg; IC50 (Phosphodiesterase 6): > 20000 nM; IC50 [17]: > 20000 nM; fraction unbound [11]: 0.52; clearance [18]: 95 mL/min/kg; IC50 [19]: > 20000 nM; IC50 [20]: > 20000 nM; IC50 (Phosphodiesterase 1): > 20000 nM; IC50 (Phosphodiesterase 3): > 20000 nM; logD [12]: 0.8; IC50 [21]: > 20000 nM; IC50 (Phosphodiesterase 7): > 20000 nM; clearance [13]: 95 mL/min/kg
CCC(=O)N1CC[C@@H](Nc2ncnc3c2nc(-c2cnn(CC)c2C)n3C)C1	187	> 1000	540	26	–
CCCN1CC[C@H](Nc2ncnc3c2nc(-c2cnn(CC)c2C)n3C)C1	1290	2560	1310	–	–
